Patent publication US12377110B2, “Fospropofol methods and compositions” (Epalex Corporation, priority 2019, dated 2025)

Columns and labels:
[1] = Linear regression of log fospropofol/propofol exposure (Cmax, AUC1, AUC2, AUC4) on time-to-treatment, migraine subjects vs healthy volunteers
Excerpt: (§1) Values for healthy volunteers are shown on the left.
as §1
Values for healthy Volunteers are shown on the left.
as §1, §1, §1

[2] = test system: moderate to severe migraine headache; assay: Study A17: clinical course (headache pain, most bothersome symptom, associated migraine symptoms); assay type: in vivo, human; details: 800 mg oral
Protocol: The study is planned to complete approximately 85 subjects. • Enrolled subjects will be asked to come to the study site for treatment when they experience a qualifying migraine headache. Dosing must occur within 4 hours after onset of the migraine symptoms. If treatment at the study site is not feasible or practicable within 4 hours after onset of migraine symptoms, subjects should use their usual medication for that headache and attempt to visit the clinic for treatment as soon as possible (within 4 hours) after onset of their next migraine headache. Dosing must occur within 60 days after enrollment (see Post-enrollment Period below). • At clinic check-in for treatment, study personnel will verify eligibility for closing regarding the criteria for a qualifying headache and adherence to post-enrollment study restrictions (see Eligibility for Dosing below). • Treatment will consist of a single oral dose of fospropofol disodium. […] Because the prevalence of migraine headaches is higher in women than in men, efforts will be made to enroll at least 50% women. • Subjects must meet the general inclusion and exclusion criteria listed below (Inclusion Criteria and Exclusion Criteria) at screening to be enrolled in the study. To be eligible for fospropofol disodium treatment after onset of a migraine headache, enrolled subjects must meet criteria specific to the presenting headache at clinic check-in (see Qualifying Headache below) and adhere to study restrictions specific to the period between enrollment and clinic check-in (see Post-enrollment Restrictions below). • Inclusion Criteria Subjects must meet all of the following criteria at screening to be enrolled in the study: • 1. Written informed consent approved by the Institutional Review Board (IRB) given before any study-related procedures are performed • 2. […] Complete abstinence alone can be used as a method of contraception. • 6. […] Able to comprehend the nature of the study, capable of giving written informed consent, and able to communicate effectively with clinic staff (as assessed by the investigator) • 8. Available to volunteer for the entire study duration and willing to adhere to all protocol requirements, including the post-enrollment restrictions (see Post-enrollment Restrictions below) • 9. Agrees not to post any information related to the study on any website or social media site (e.g., Facebook, Twitter, LinkedIn, Google+, etc.) until the entire trial has been completed • 10. Willing to forgo rescue medicine for at least 2 hours after initiation of treatment with study drug (see In-Clinic Rescue Medicine) • Exclusion Criteria Subjects to whom any of the following criteria apply at screening will be excluded: • 1. History of hemiplegic migraine (at any time in the past). • 2. History of headaches of any type occurring on ≥15 days/month during any of the 3 months prior to screening. • 3.

Beagle dogs = assay: Study No. 15-4 (GLP): 14-day once daily oral gavage toxicity of fospropofol disodium; assay type: in vivo
Protocol: (§2) The purpose of Study No. 15-4 (GLP) was to determine the potential toxicity of fospropofol in Beagle dogs when administered once daily by oral gavage for 14 days. […] Because the treatment-related clinical observations (consistent with the expected transient sedative actions of fospropofol) and effects on hematology and clinical chemistry parameters were considered nonadverse, the NOAEL was determined to be 160 mg/kg/day (3200 mg/m^2/day).
(§3) As in the rat, CNS-related clinical signs were observed which were consistent with the established pharmacodynamic effects of fospropofol. […] The NOAEL was determined to be 160 mg/kg/day (3200 mg/m^2/d) in male and female Beagle dogs.

[3] = as above; assay type: in vivo, Beagle dogs; details: both sexes, dog, in vivo; 14 days once daily oral gavage, Beagle dogs
Protocol: as §2, §3

[4] = 1 hr postdose, No rescue, N = 18
[5] = 2 h postdose, No rescue, N = 18
[6] = 4 h postdose, No rescue, N = 18
[7] = 24 h postdose (D2), No rescue, N = 18
[8] = 24 h postdose (D2), Total, N = 18
[9] = 48 h postdose (D3), Rescue, N = 18
[10] = 48 h postdose (D3), Total, N = 18

CC(C)c1cccc(C(C)C)c1O [propofol, 2,6-diisopropylphenol]
p of inverse linear association between log of the ratio AUC1 propofol to AUC1 fospropofol and time-to-treatment ([1]; migraine subjects): 0.150
p of inverse linear association between log of the ratio AUC2 propofol to AUC2 fospropofol and time-to-treatment ([1]; migraine subjects): 0.157
p of difference in distribution of log of the ratio AUC1 propofol to AUC1 fospropofol between migraine subjects and healthy volunteers ([1]; migraine subjects vs healthy volunteers): 0.0367

CC(C)c1cccc(C(C)C)c1OCOP(=O)([O-])O.[Na+] [fospropofol disodium]
Sustained MBS-free response: No, % ([2]; 2-24 hours postdose, N = 18): (44.4) %
Sustained MBS-free response: Yes, % ([2]; 2-24 hours postdose, N = 18): (55.6) %
Sustained headache pain freedom: No, % ([2]; 2-24 hours postdose, N = 18): (77.8) %
Sustained headache pain freedom: Yes, % ([2]; 2-24 hours postdose, N = 18): (22.2) %
Sustained headache pain relief: No, % ([2]; 2-24 hours postdose, N = 18): (33.3) %
Sustained headache pain relief: Yes, % ([2]; 2-24 hours postdose, N = 18): (66.7) %
Sustained MBS-free response: No, % ([2]; 2-48 hours postdose, N = 18): (50) %
Sustained MBS-free response: Yes, % ([2]; 2-48 hours postdose, N = 18): (50) %
Sustained headache pain freedom: No, % ([2]; 2-48 hours postdose, N = 18): (83.3) %
Sustained headache pain freedom: Yes, % ([2]; 2-48 hours postdose, N = 18): (16.7) %
Sustained headache pain relief: No, % ([2]; 2-48 hours postdose, N = 18): (38.9) %
Sustained headache pain relief: Yes, % ([2]; 2-48 hours postdose, N = 18): (61.1) %
Most Bothersome Symptom: MBS free, % [2, 4]: (38.9) %
Most Bothersome Symptom: MBS present, % [2, 4]: (61.1) %
Severity of headache pain: Mild pain, % [2, 4]: (50.0) %
Severity of headache pain: Moderate pain, % [2, 4]: (33.3) %
Severity of headache pain: Pain free, % [2, 4]: (5.6) %
Severity of headache pain: Severe pain, % [2, 4]: (11.1) %
Most Bothersome Symptom: MBS free, % ([2]; 1 hr postdose, Total, N = 18): (38.9) %
Most Bothersome Symptom: MBS present, % ([2]; 1 hr postdose, Total, N = 18): (61.1) %
Severity of headache pain: Mild pain, % ([2]; 1 hr postdose, Total, N = 18): (50.0) %
Severity of headache pain: Moderate pain, % ([2]; 1 hr postdose, Total, N = 18): (33.3) %
Severity of headache pain: Pain free, % ([2]; 1 hr postdose, Total, N = 18): (5.6) %
Severity of headache pain: Severe pain, % ([2]; 1 hr postdose, Total, N = 18): (11.1) %
Headache Pain level 1 hr ([2]; 1 hr postdose, individual migraine subjects (N = 12)): Severe and Mild and None and Moderate
Most Bothersome Symptom: MBS free, % [2, 5]: (66.7) %
Severity of headache pain: Mild pain, % [2, 5]: (61.1) %
Severity of headache pain: Moderate pain, % [2, 5]: (16.7) %
Severity of headache pain: Pain free, % [2, 5]: (22.2) %
Most Bothersome Symptom: MBS free, % ([2]; 2 h postdose, Total, N = 18): (66.7) %
Most Bothersome Symptom: MBS present, % ([2]; 2 h postdose, Total, N = 18): (33.3) %
Severity of headache pain: Mild pain, % ([2]; 2 h postdose, Total, N = 18): (61.1) %
Severity of headache pain: Moderate pain, % ([2]; 2 h postdose, Total, N = 18): (16.7) %
Severity of headache pain: Pain free, % ([2]; 2 h postdose, Total, N = 18): (22.2) %
Headache Pain level 2 hr ([2]; 2 hr postdose, individual migraine subjects (N = 12)): Moderate and None and Mild
Most Bothersome Symptom: MBS free, % [2, 6]: (77.8) %
Severity of headache pain: Mild pain, % [2, 6]: (22.2) %
Severity of headache pain: Moderate pain, % [2, 6]: (5.6) %
Severity of headache pain: Pain free, % [2, 6]: (55.6) %
Most Bothersome Symptom: MBS free, % ([2]; 4 h postdose, Rescue, N = 18): (11.1) %
Most Bothersome Symptom: MBS present, % ([2]; 4 h postdose, Rescue, N = 18): (11.1) %
Severity of headache pain: Mild pain, % ([2]; 4 h postdose, Rescue, N = 18): (5.6) %
Severity of headache pain: Pain free, % ([2]; 4 h postdose, Rescue, N = 18): (11.1) %
Most Bothersome Symptom: MBS free, % ([2]; 4 h postdose, Total, N = 18): (88.9) %
Most Bothersome Symptom: MBS present, % ([2]; 4 h postdose, Total, N = 18): (11.1) %
Severity of headache pain: Mild pain, % ([2]; 4 h postdose, Total, N = 18): (27.8) %
Severity of headache pain: Moderate pain, % ([2]; 4 h postdose, Total, N = 18): (5.6) %
Severity of headache pain: Pain free, % ([2]; 4 h postdose, Total, N = 18): (66.7) %
Headache Pain level 4 hr ([2]; 4 hr postdose, individual migraine subjects (N = 12)): Moderate and None and Mild and Mild [b]
Severity of headache pain: Mild pain, % [2, 7]: (16.7) %
Severity of headache pain: Moderate pain, % [2, 7]: (11.1) %
Severity of headache pain: Pain free, % [2, 7]: (72.2) %
Severity of headache pain: Moderate pain, % ([2]; 24 h postdose (D2), Rescue, N = 18): (11.1) %
Severity of headache pain: Mild pain, % [2, 8]: (16.7) %
Severity of headache pain: Moderate pain, % [2, 8]: (22.2) %
Severity of headache pain: Pain free, % [2, 8]: (72.2) %
Most Bothersome Symptom: MBS free, % ([2]; 24 h postdose (Day 2), No rescue, N = 18): (72.2) %
Most Bothersome Symptom: MBS free, % ([2]; 24 h postdose (Day 2), Rescue, N = 18): (11.1) %
Most Bothersome Symptom: MBS free, % ([2]; 24 h postdose (Day 2), Total, N = 18): (83.3) %
Severity of headache pain: Pain free, % ([2]; 48 h postdose (D3), No rescue, N = 18): (83.3) %
Severity of headache pain: Mild pain, % [2, 9]: (11.1) %
Severity of headache pain: Moderate pain, % [2, 9]: (22.2) %
Severity of headache pain: Mild pain, % [2, 10]: (11.1) %
Severity of headache pain: Moderate pain, % [2, 10]: (22.2) %
Severity of headache pain: Pain free, % [2, 10]: (83.3) %
Most Bothersome Symptom: MBS free, % ([2]; 48 h postdose (Day 3), No rescue, N = 18): (66.7) %
Most Bothersome Symptom: MBS free, % ([2]; 48 h postdose (Day 3), Rescue, N = 18): (11.1) %
Most Bothersome Symptom: MBS free, % ([2]; 48 h postdose (Day 3), Total, N = 18): (77.8) %
Most Bothersome Symptom: MBS free, % ([2]; Discharge, No rescue, N = 18): (72.2) %
Severity of headache pain: Mild pain, % ([2]; Discharge, No rescue, N = 18): (11.1) %
Severity of headache pain: Pain free, % ([2]; Discharge, No rescue, N = 18): (66.7) %
Most Bothersome Symptom: MBS free, % ([2]; Discharge, Rescue, N = 18): (16.7) %
Severity of headache pain: Mild pain, % ([2]; Discharge, Rescue, N = 18): (5-6) %
Severity of headache pain: Pain free, % ([2]; Discharge, Rescue, N = 18): (11.1) %
Most Bothersome Symptom: MBS free, % ([2]; Discharge, Total, N = 18): (88.9) %
Severity of headache pain: Mild pain, % ([2]; Discharge, Total, N = 18): (16.7) %
Severity of headache pain: Pain free, % ([2]; Discharge, Total, N = 18): (77.8) %
Freedom from MBS at 2 hours: No, % ([2]; N = 18): (33.3) %
Freedom from MBS at 2 hours: Yes, % ([2]; N = 18): (66.7) %
Freedom from both migraine headache pain and MBS at 2 hours: No, % ([2]; N = 18): (77.8) %
Freedom from both migraine headache pain and MBS at 2 hours: Yes, % ([2]; N = 18): (22.2) %
Freedom from migraine headache pain at 2 hours: No, % ([2]; N = 18): (77.8) %
Freedom from migraine headache pain at 2 hours: Yes, % ([2]; N = 18): (22.2) %
MBS (Y/N) 1 hr ([2]; most bothersome symptom present, 1 hr postdose, individual migraine subjects (N = 12)): Yes and No
MBS (Y/N) 2 hr ([2]; most bothersome symptom present, 2 hr postdose, individual migraine subjects (N = 12)): No and Yes
MBS (Y/N) 4 hr ([2]; most bothersome symptom present, 4 hr postdose, individual migraine subjects (N = 12)): No and Yes and Yes [b]
Tolerability (Beagle dogs; 0, 50, 100, and 160 mg/kg/day for 14 consecutive days): well tolerated at all close levels with no adverse findings
Mortalities (Beagle dogs; 0, 50, 100, and 160 mg/kg/day for 14 days): no mortalities
NOAEL (Beagle dogs; 14 days once daily oral gavage, Beagle dogs): 3200 mg/m^2/day
Histopathology, all tissues including GIT-related (Beagle dogs; up to 160 mg/kg/day): no treatment-related histopathological findings
Body weights, cardiovascular evaluations (ECGs, QTc), ophthalmology, clinical pathology, organ weights (Beagle dogs; up to 160 mg/kg/day for 14 days): no toxicologically significant changes
NOAEL at 14 days [3]: 160 mg/kg/day
